Source: patent US8128963B2, “Methods for treating ischemic disorders using carbon monoxide” (The Trustees of Columbia University in the City Of New York, priority 1999, dated 2012)

What was measured:
Human umbilical vein ECs = assay: vWF release from hypoxic endothelial cells (ELISA); format: cell-based; details: cycloheximide 10 μg/ml added at start of hypoxic period, 4 hours of hypoxia
Procedure: Endothelial cell culture and exposure of cells to H or H/R. Human umbilical vein ECs were prepared from umbilical cords and grown in culture by the method of Jaffe (16) as modified by Thornton (17). Experiments utilized confluent ECs (passages 1-4) grown in Medium 199 supplemented with fetal bovine serum (15%; Gemini, Calabasas, Calif.), human serum (5%; Gemini), endothelial growth supplement (Sigma, St. Louis, Mo.), heparin (90 μg/ml; Sigma) and antibiotics, as described (17). When ECs achieved confluence, experiments were performed by placing cultures in an environmental chamber (Coy Laboratory Products, Ann Arbor, Mich.) which provided a controlled temperature (37° C.) and atmosphere with the indicated amount of oxygen, carbon dioxide (5%) and the balance made up of nitrogen. Use of this chamber for cell culture experiments has been described previously (15,18). During exposure of ECs to hypoxia (for a maximum of 16 hours), the oxygen tension in the culture medium was 14-18 torr and there was no change in the medium pH. Reoxygenation was performed by placing ECs in an ambient atmosphere containing carbon dioxide (5%) at 37° C.
Measurement of Weibel-Palade body exocytosis: ECs were plated into 24 well plates, rinsed 3 times with Hank's balanced salt solution, and then exposed to hypoxia or to normoxia for the indicated durations. For experiments in which vWF was measured, cells were maintained in serum-free medium. All other EC experiments were performed in the EC growth medium described above. For measurement of vWF, 200 μL aliquots of culture supernatant was removed at the indicated times, and a commercially available ELISA (American Diagnostica, Greenwich, Conn.), based on a polyclonal goat anti-human vWF antibody, was performed on duplicate specimens, with a standard curve generated using purified human vWF antigen supplied by the same vendor. EC P-selectin expression was determined by measuring the specific binding of a murine monoclonal anti-human P-selectin antibody (WAPS 12.2 clone, Endogen, Cambridge, Mass.; this is an IgGl which recognizes a calcium sensitive epitope and blocks P-selectin dependent neutrophil adhesion. Antibody was radiolabelled with ^125I by the lactoperoxidase method (19) using Enzymobeads (Bio-Rad, Hercules, Calif.), stored at 4° C. and used within one week of labelling. Binding assays were performed on HUVECs plated on 96 well plates, in which fresh M199 with 0.1% bovine serum albumin (Sigma, St. Louis, Mo.) was added immediately prior to each experiment. Cells were placed in a humidified environment at 37° C., and exposed to normoxia or H (in the presence or absence of 50 μM probucol, as indicated, Sigma) for the indicated durations. Cell monolayers were fixed for 15 min. with 1% paraformaldehyde^10 (cells exposed to H were fixed while still within the hypoxic environment), visually inspected to ensure that the monolayers remained intact, and washed twice with HBSS containing 0.5% bovine serum albumin (HBSS/A). Monolayers were then exposed to 10^5 cpm of ^125I-labelled anti-P-selectin antibody (WAPS 12.2) in the presence of 200 μg/mL of either unlabelled blocking antibody (WAPS 12.2) or nonblocking anti-P-selectin IgG of the same isotype (anti-GMP-140, AC1.2 clone, Becton-Dickinson, San Jose, Calif.) (20,21). After binding for 1 hour at 37° C., monolayers were washed 4 times with HBSS/A, and bound antibody was eluted with 1% triton X-100 in PBS (200 μL/well) and counted. […]

ECs = assay: Protein synthesis: 35S-methionine/cysteine in trichloroacetic acid-precipitable material; format: cell-based; details: Homo sapiens; 10 μg/mL, 4 hrs
Procedure: (§1) Measurement of Weibel-Palade body exocytosis: ECs were plated into 24 well plates, rinsed 3 times with Hank's balanced salt solution, and then exposed to hypoxia or to normoxia for the indicated durations. For experiments in which vWF was measured, cells were maintained in serum-free medium. All other EC experiments were performed in the EC growth medium described above. […] EC P-selectin expression was determined by measuring the specific binding of a murine monoclonal anti-human P-selectin antibody (WAPS 12.2 clone, Endogen, Cambridge, Mass.; this is an IgGl which recognizes a calcium sensitive epitope and blocks P-selectin dependent neutrophil adhesion. Antibody was radiolabelled with ^125I by the lactoperoxidase method (19) using Enzymobeads (Bio-Rad, Hercules, Calif.), stored at 4° C. and used within one week of labelling. Binding assays were performed on HUVECs plated on 96 well plates, in which fresh M199 with 0.1% bovine serum albumin (Sigma, St. Louis, Mo.) was added immediately prior to each experiment. […] After binding for 1 hour at 37° C., monolayers were washed 4 times with HBSS/A, and bound antibody was eluted with 1% triton X-100 in PBS (200 μL/well) and counted. […] Following 4 hours of normoxic exposure, trichloroacetic acid-precipitable material was collected and counted.

P-selectin [1] = assay: EC P-selectin expression by specific binding of 125I anti-P-selectin antibody; format: cell-based, human; details: cycloheximide 10 μg/mL given at onset of H, 4 hour time point
Procedure: as §1

[2] = system: hypoxic human umbillical vein ECs; assay: vWF release from hypoxic HUVECs, NO/cGMP pathway; format: cell-based; details: hypoxia pO2<20 Torr 4 hours; SIN-1 0.1 mM, 8-Bromo-cGMP 10 nM
Procedure: (§2) Hypoxia or free radicals induce P-selectin (PS) translocation to the endothelial cell (EC) surface, where it participates in neutrophil (PMN) adhesion during reperfusion. To explore a mechanism whereby nitrovasodilators may attenuate postischemic leukosequestration, we tested whether stimulating the NO/cGMP pathway could attenuate surface PS expression in hypoxic human umbillical vein ECs. […] Under similar conditions, addition of the NO donor 3-morpholino sydnonimine (SIN-1, 0.1 mM) or the cGMP analog 8-Bromo-cGMP (cGMP, 10 nM) caused a reduction in vWF release; Control vWF, 11±0.4 mU/mL; SIN-1, 9.1±0.3 mU/mL; cGMP, 9.7±0.2 mU/mL; p<0.005 for both SIN-1 or cGMP vs Control.

P-selectin [3] = assay: Surface P-selectin expression on hypoxic HUVECs (radiolabeled anti-PS antibody binding); format: cell-based, human
Procedure: as §2

hypoxic HUVECs = assay: Immunofluorescent adherence assay, HL60 binding to hypoxic HUVECs; format: cell-based, human
Procedure: as §2

[4] = system: intracellular calcium concentration [Cai]; assay: Intracellular calcium by fura-2 fluorescence in hypoxic ECs; format: cell-based, human
Procedure: as §2

| SMILES | decrease of hypoxia-induced vWF release (Human umbilical vein ECs) [%] | inhibition at 10 µg/mL (ECs) [%] | hypoxia-induced endothelial P-selectin expression (P-selectin [1]) | vWF release [2] [mU/mL] | PS expression in calcium-free medium (P-selectin [3]; ECs in calcium-free medium) | decrease of surface PS expression vs controls (P-selectin [3]; hypoxia 4 hours, SIN-1 0.1 mM, 8-Bromo-cGMP 10 nM) [%] | decrease of HL60 binding to hypoxic HUVECs vs controls (hypoxic HUVECs) [%] | hypoxia-increased intracellular calcium concentration [Cai] [4] |
| --- | --- | --- | --- | --- | --- | --- | --- | --- |
| C[C@@H]1C[C@@H]([C@H](O)CC2CC(=O)NC(=O)C2)C(=O)[C@@H](C)C1 [cycloheximide] | 12.5 | > 85 | hypoxia still increased endothelial P-selectin expression, albeit at reduced levels |  |  |  |  |  |
| Nc1nc2c(nc(Br)n2[C@@H]2O[C@@H]3COP(=O)(O)O[C@H]3[C@H]2O)c(=O)[nH]1 [cGMP, 8-Bromo-cGMP] |  |  |  | 9.7±0.2 | Neither SIN-1 nor cGMP could further reduce PS expression | 48 | 86 | could be blocked |
